Test results as given in US9051245B2 (UHA MIKAKUTO CO., LTD., priority 2011, dated 2015).
pIC50: −log10 of the molar value. Like-named read-outs stand apart in the source and are kept apart here.

Experiments:
[1] = test system: Bacillus subtilis (NBRC 3134); assay: Antibacterial paper disc method; type: cell-based; details: 24 hours, read-out: Diameter of inhibition zone; for zone of inhibition at 1000 µM: NBRC3134, added concentration 1 mM; for zone of inhibition at 5000 µM: NBRC3134, added concentration 5 mM; for zone of inhibition at 10000 µM: NBRC3134, added concentration 10 mM
Method: An assay was performed by a paper disc method for the purpose of confirming the antibacterial action of the UHA4002 and 4003. The paper disc method is a known technique capable of easily investigating the antibacterial activity of a test substance by creating each inhibition zone of the test substance. The assay was performed using, as a fungus body, Bacillus subtilis (NBRC 3134) purchased from National Institute of Technology and Evaluation Biological Resource Center NBRC. For the raise of a fungus body and a culture method thereof, No. 702 which is a culture solution specified by NBRC was adjusted and used. The culture was performed at 37° C. The experiment method of the paper disc method ((Agar) culture solution, Culture method, Test preparation, Test method) was performed in accordance with a BSAC standardization disc sensitivity test method (8th edition). […] As a positive control, chloramphenicol (Wako Pure Chemical Industries, “036-10571”) of an antibacterial component to be used as a pharmaceutical agent was dissolved in DMSO and adjusted and, as a negative control, DMSO was used. The samples thus adjusted were immersed in the paper disc, disposed on an agar medium in which bacillus subtilis was seeded, cultured, and then, after 24 hours later, the measurement of the inhibition zone was performed. The reliability of this example is confirmed from the size of the inhibition zone by chloramphenicol.

[2] = test system: HL-60 cells (human myeloid leukemia cells); assay: Cancer cell growth inhibitory action using HL-60 cells (Cell counting kit-8); type: cell-based; details: for pIC50: HL-60 cells, 24 hours, read-out: Cell growth inhibition ability (IC50); for Effect of inhibiting the growth of the HL-60 cells compared with resveratrol and E-viniferin: relative to resveratrol and ε-viniferin
Method: Next, in order to see the effect of each compound to cancer cells, the cancer cell growth inhibitory action using HL-60 cells (human myeloid leukemia cells) was tested.
As culturing of cells, one in which 4 mM glutamine (L-glutamine, Sigma-Aldrich, “G8540-100G”) and 10% FBS (fetal bovine serum, Biological Industries, “04-001-1A”) were added to a high nutrient medium […] (Sigma-Aldrich, “R0883”) was used as a culture solution, and then subculture was performed. For a test, a 96-well plate for cell culture (Corning, “3595”) was used. The number of cells was adjusted on the test day in such a manner that the number of the HL-60 cells was 5×10^5 cell/mL, and then seeded in the 96-well plate with 100 μL/well.
For the preparation of the samples, each compound was dissolved with DMSO (dimethylsulfoxide, Wako Pure Chemical Industries, “046-21981”), and then the final concentration in the culture solution of the HL-60 cells of the samples was adjusted to be 10 μM, 30 μM, 100 μM, and 300 μM, respectively, and then the test was started.
For the detection of the cell growth inhibitory effect, the detection was performed by a MTT method using “Cell counting kit-8” (Dojin Chemical Laboratory, “347-07621”). More specifically, 24 hours after starting the test, 10 μL of the detection liquid of the cell counting kit-8 was added to each well, and then sufficiently stirred. Thereafter, a shading reaction was performed, the absorbance at 450 nm was measured using a plate reader (Biorad Laboratories, “BIO-RAD Model 680”), and then the obtained data were treated. The cell viability is a value obtained by calculation under the conditions where the number of survival cells of the cells treated with the culture solution to which DMSO was added was 100% and the number of survival cells of the cells under the concentration of each compound was defined as a relative value. From the relationship between each sample concentration and the cell viability, the concentration IC50 (50% inhibitory concentration) which inhibits the cell growth by 50% was calculated.

[3] = biological target: rat intestine derived lipase; assay: Lipase inhibitory action test (Lipase kit S); type: biochemical; details: 30° C., 10 minutes reaction
Method: As lipase, one obtained by suspending 100 mg of rat derived intestine acetone powder (manufactured by Sigma-Aldrich Japan) in 1 mL of 100 mM citric acid buffer (pH 6.0), stirring the same at 4° C. for 1 hour, centrifuging the same (at 15000 rpm for 45 minutes at 4° C.) to obtain a supernatant, and then diluting the supernatant by 1500 times was used as a lipase solution.
With respect to the sample preparation, those obtained by dissolving each compound with DMSO, and then preparing in such a manner as to be 0.1 mM, 0.5 mM, 1 mM, 2 mM, and 4 mM were used.
For measuring the activity, a “Lipase kit S” (Trade name, manufactured by Dainippon Pharmaceutical Co., Ltd.) was used. First, in accordance with a preparation method described in the catalog of the Lipase kit S, a color developing liquid was prepared. Reaction liquids in which 70 μL, of the color developing liquid, 2 μL of an esterase inhibitor, 10 μL of the lipase solution, and 10 μL of the samples (Final concentration: 10 μM, 50 μM, 100 μM, 200 μM, 400 μM, and 1000 μM) were mixed were prepared, preincubated at 30° C. for 5 minutes, and then 8 μl of a substrate solution described in the catalog was added. Then, a reaction was started. After reacting for 10 minutes, 150 μL of a reaction stop liquid prepared in accordance with the preparation method described in the catalog of the Lipase kit S was added to stop the reaction. […]

[4] = DPPH radical elimination method (antioxidation); details: for pIC50: DPPH radical, 20 minutes, absorbance 520 nm, read-out: Radical capturing ability (IC50); for Antioxidation activity compared with resveratrol: DPPH, relative to resveratrol
Method: A test of the antioxidation effect of the UHA4002 and 4003 was performed. The test was performed by adopting a DPPH (1,1-diphenyl-2-picrylhydrazyl) radical elimination method. A technique thereof is mentioned below.
About the main experiment method of the DPPH radical elimination method, the test was advanced with reference to a technique described in “Methods for Functional Food Analysis” (Published by Korin Publishing Co., Ltd., edited by Kazuki SHINOHARA, Tateo SUZUKI, and Shuichi KAMINOGAWA, 2000). […] The DPPH reaction liquid was adjusted in such a manner as to be 400 μM DPPH (Sigma-Aldrich “D9132”), 50 mM MES (2-morpholinoethanesulphonic acid, Dojindo Laboratories, “345-01625”), and 75% ethanol. The reaction was performed in a 96-well plate (As One, “1-6776-03”), and 100 μL of the samples and 100 μL of the DPPH reaction liquid were placed, and then mixed. The mixture was allowed to stand still in a shading state for 20 minutes, and then each absorbance at 520 nm was measured with a plate reader.
The IC50 refers to a concentration of each sample which is considered to have an ability of eliminating 50% DPPH radical.

[5] = Physicochemical properties: solubility in solvents
[6] = test system: SCC-4 cells (human oral cancer cells); assay: Oral cancer cell growth inhibitory action using SCC-4 cells (Cell counting kit-8); type: cell-based; details: read-out: Cell growth inhibition ability (IC50)
Method: For culturing of the SCC-4 cells, a DMEM/F-12 (1:1) culture medium (manufactured by GIBCO) containing 400 ng/mL hydrocortisone (manufactured by Sigma-Aldrich Japan), 1% antibiotic-antimycotic (manufactured by GIBCO), and 10% FBS (Fetal Bovine Serum, manufactured by ATCC) was used. For the test, a collagen I coat 96-well plate for cell culture (manufactured by Japan BD) was used, and SCC-4 cells whose number of cells was adjusted to be 5×10^5 cells/mL were seeded with 100 μL/well. The cells were cultured under the conditions of 37° C. and 5% CO2 for 24 hours, and were used for the test in a confluent state of 80% or higher.
With respect to the sample preparation, each compound was dissolved with DMSO, and then prepared in such a manner as to be 0.63 mM, 1.25 mM, 2.5 mM, 5 mM, and 10 mM. The samples were added in such a manner that the final concentration in the SCC-4 cell culture solution was 6.3 μM, 12.5 μM, 25 μM, 50 μM, and 100 μM, and then the test was started. The sample to which an equivalent amount of only DMSO as the solvent was added was used as a negative control.
The number of viable cells was quantified by an MTT method using a “Cell counting kit-8” in the same manner as in Example 3, and the concentration IC50 at which the cell growth is inhibited by 50% was calculated.

pIC50 ([2]; Homo sapiens) | pIC50 [3] | pIC50 [4] | Solubility ([5]; Chloroform) | Solubility ([5]; DMSO) | Solubility ([5]; Ethanol) | Solubility ([5]; Ethyl acetate) | Solubility ([5]; Methanol) | Solubility ([5]; Water) | pIC50 [6] | pIC50 [2] | SMILES | zone of inhibition at 1000 µM [1] | zone of inhibition at 5000 µM [1] | zone of inhibition at 10000 µM [1] | Effect of inhibiting the growth of the HL-60 cells compared with resveratrol and E-viniferin [2] | Antioxidation activity compared with resveratrol [4] | zone of inhibition at 50000 µM ([1]; NBRC3134, added concentration 50 mM)
4.52 | 3.51 | 4.30 | Poorly soluble | Soluble | Soluble | Poorly soluble | Soluble | Poorly soluble | 4.28 |  | Oc1ccc(/C=C/c2cc(O)cc3c2C(c2ccc(O)cc2)Cc2cc(O)cc(O)c2-3)cc1 (single isomer, unassigned) [UHA 4002] | 8.5 mm | 11 mm | 13.3 mm | twice or higher | as high as twice | 
4.52 |  | 4.30 | Poorly soluble | Soluble | Soluble | Poorly soluble | Soluble | Poorly soluble | 4.49 |  | Oc1ccc(/C=C\c2cc(O)c3c(c2)-c2c(O)cc(O)cc2CC3c2ccc(O)cc2)cc1 (single isomer, unassigned) [UHA 4003] | 8.3 mm | 10.5 mm | 11.8 mm | twice or higher | as high as twice | 
4.10 | < 3.00 |  |  |  |  |  |  |  | < 4.00 |  | Oc1ccc(/C=C/c2cc(O)cc(O)c2)cc1 [Resveratrol, trans-resveratrol, reference compound] | 0 mm | 0 mm | 0 mm |  |  | 10 mm
 |  |  |  |  |  |  |  |  |  | 4.22 | Oc1ccc(/C=C/c2cc(O)cc3c2[C@@H](c2cc(O)cc(O)c2)[C@H](c2ccc(O)cc2)O3)cc1 [ε-viniferin, reference compound] |  |  |  |  |  | 
